# From US12648565B2, “Post-emergence herbicide” (Belvedere Foliar LLC, priority 2017, dated 2026)
# Legend:
# [1] = system: Pasture Blend 2, Allium ampeloprasum (Leek), Brassica oleracea (Kale), Lantana camara, Pisum sativum var. saccharatum (Snow pea) (P2, 1, 5, 16, 23); assay: Trial 31B: greenhouse foliar spray trial, adjuvant mix B, visual toxicity scoring; type: in vivo; conditions: 2.0 M; day 4
# From the text: (§1) The plants were numbered 22, 1, 5, 16, and 23, corresponding to Pasture blend 2, Brassica oleracea (var. Kale “Dinosaur”), Lantana camara (White Lantana), and Pisum sativum var. saccharatum (Snow pea) (Refer to Tables 4A and 4B for plant species identification). The only difference between Trials 31A and 31B was the composition of the proprietary adjuvant mix employed for each trial. The adjuvants for the “A” series were urea and […] silicone surfactant (Loveland Products). The adjuvants for the “B” series were urea and LI700 penetrant (Loveland Products). Solutions 1 A & B (S-1A, S-1B) correspond to a 2.0 molar solution of potassium acetate, pH 5.01 achieved with citric acid. S-2 is a similar solution of 1.5 molarity, pH 5.00. S-3 is a similar solution of 1.0 molarity, pH 4.97. (Refer to Tables 6A and 6B for trial solutions, details and results).
# (§2) The majority of greenhouse trials conducted to date have been of one basic design: • 1. […] Plants are sprayed with the experimental formulation, always in late afternoon (greenhouse tests), or in early morning (field tests), are observed over as many as several weeks, and their visible state of decline scored by the same examiner on a 9 points system relying on visual effects of toxicity. […]
# [2] = system: Viola x wittockiana (Viola), Antirrhinum majus (Snapdragon), Cineraria meritima (Dusty miller), Cymbalaria aequitriloba (Cymbalaria); assay: Trial 56: greenhouse foliar spray trial, visual toxicity scoring; type: in vivo; conditions: for phytotoxic control (in words): 1.5 molarity
# From the text: (§3) The majority of greenhouse trials conducted to date have been of one basic design: • 1. Samples of different species of flowering plant and grass are exposed to different formulations of the herbicide in accordance with some embodiments, prepared in a range of concentrations, in combination with potentially suitable adjuvants, and applied as an aquatic spray. Experimental plants are purchased either from a local nursery, grown from ornamental and weed seed packs, or grown from seeds of a custom blend prepared specifically for this project and listed in Table 4B. The experimental variable in a typical test is the molar mass concentration of the nutrient salt being examined. Other factors including pH, nitrogen source, and the amount and composition of surfactant or penetrant are constants within a trial except when one of these factors is itself the variable of interest in the experiment. Experiments are controlled unless irrelevant for a particular test. • 2. Standard techniques to reduce experimental error are employed including use of controls; standard spray application pressures; standardized growing conditions, growing medium, containers, and source irrigation water; and preparation and shipping of samples for laboratory analysis according to required standard laboratory protocols. • 3. Plants are sprayed with the experimental formulation, always in late afternoon (greenhouse tests), or in early morning (field tests), are observed over as many as several weeks, and their visible state of decline scored by the same examiner on a 9 points system relying on visual effects of toxicity. (Table 5.)
# (§4) Scores of half-value are also used: 0, 0.5, 1.0, 1.5, 2.0, 2.5, etc. • 4. The estimated successful herbicidal effectiveness of a formulation was determined from a combination of averaged and cumulative scores of 4.0 to 5.0 observed approximately 14 days or longer after application: “All leaves and flowers if present desiccated, browned, wilted, and stems or blades lodged; no green tissue visible; no regrowth from roots visible.”
# [3] = system: Brassica oleracea (Kale), Dichondra repens, Fragaria x ananassa (Strawberry), Pasture Blend 2, Rosemarina officinalis (Rosemary) (5, 11b, 13, 22, 23b); assay: Trial 47: greenhouse foliar spray trial, visual toxicity scoring; type: in vivo
# From the text: as §3, §4
# In Trial 47, the herbicides comprised K-acetate; molarity range from 1.0-2.5; pH 5.03-5.05 with glacial acetic acid; proprietary adjuvant mix. Ref. Lab-2, p. 42. Test plants (ref Tables 4A and 4B):5, 11b, 13, 22, 23b
# S-1 corresponds to the highest concentration of active nutrient tested, S-4 corresponds to the lowest concentration of nutrient tested, and […] represent intermediate levels. The data are graphically presented below in FIG. 8.
# [4] = system: Pasture Blend 2, Allium ampeloprasum (Leek), Brassica oleracea (Kale), Lantana camara, Pisum sativum var. saccharatum (Snow pea) (P2, 1, 5, 16, 23); assay: Trial 31A: greenhouse foliar spray trial, adjuvant mix A, visual toxicity scoring; type: in vivo; conditions: 1.0M; by Day 20
# From the text: as §1, §2
# [5] = system: all weeds: Common purslane, Barnyard grass, Feather fingergrass; conditions: Day 4
# From the text: as §3, with “Standard techniques to reduce experimental error are employed including use of controls; standard spray application pressures; standardized growing conditions, growing medium, containers, and source irrigation water; and preparation and shipping of samples for laboratory analysis according to required standard laboratory protocols. • 3.” left out, “(Table 5.)” left out
# mature field weeds = assay: Trial 50: field test, visual toxicity scoring; type: in vivo
# From the text: as §3, §4
# In Trial 50, the herbicides comprised K-acetate; molarity range from 1.5, 2.0 and 2.5; pH 5.0 with citric acid; proprietary adjuvant mix. Ref. Lab-2, p. […] Test plants were mature field weeds.
# S-1 corresponds to the highest concentration of active nutrient tested, S-3 corresponds to the lowest concentration of nutrient tested, and S-2 represent an intermediate level. The data are graphically presented below in FIG. 11.
# [6] = system: Pasture Blend 2, Gazania rigens, Fragaria x ananassa (Strawberry), Nemophila menziesii discoidalis (plants 22, 15, 13, 19); assay: Trial 22: greenhouse foliar spray trial, visual toxicity scoring; type: in vivo
# From the text: as §3, §4
# In Trial 22, the herbicides comprised K-acetate; molarity range 1.0-2.0; pH approx. 5.0 with succinic acid; proprietary adjuvant mix.
# [7] = system: Pasture Blend 2, Gazania rigens, Fragraria x ananassa (Strawberry), Nemophila menziesii discoidalis (plants 22, 15, 13, 19); assay: Trial 25: greenhouse foliar spray trial at four acidities, visual toxicity scoring; type: in vivo; conditions: molarity 1.5, test conclusion on Day 5
# From the text: as §3, with “Standard techniques to reduce experimental error are employed including use of controls; standard spray application pressures; standardized growing conditions, growing medium, containers, and source irrigation water; and preparation and shipping of samples for laboratory analysis according to required standard laboratory protocols. • 3.” left out, “(Table 5.)” left out
# [8] = system: Pasture Blend 1, Pasture blend 2, Cineraria meritima (Dusty miller) (plants 21, 22, 10); assay: Trial 14: greenhouse foliar spray trial, visual toxicity scoring; type: in vivo, pasture seed blend
# From the text: as §3, §4
# In Trial 14, the herbicides comprised K-acetate; molarity 2.0, 1.5, 1.0; pH approx. 5.3 by glacial acetic acid, and a proprietary adjuvant mix. Ref. Lab-1, p. 113. Test plants (ref. Tables 4A and 4B): P1, P2, P10.
structure (smiles),measurement,setting,value
"CC(=O)[O-].[K+] [K-acetate, Potassium acetate]",toxicity level (in words),[1],severe-to-fatal
same,appearance of treated plants,"[2]; 1.5 molar, last observed on Day 16",appeared dead with no regrowth
same,phytotoxic control (in words),[2]; Day 3,strong phytotoxic control
same,phytotoxic control (in words),[2]; Day 4 through Day 15,excellent phytotoxic control
same,average toxicity score,"[3]; 1.0M, second value listed (days not given)",4.4
same,average toxicity score,"[3]; 1.0M, third value listed (days not given)",4.8
same,average toxicity score,"[3]; 2.5M, Day 5",4.5
same,average toxicity score,"[3]; 2.5M, Day 9",4.8
same,average toxicity score,"[3]; 2.5M, Day 14",4.9
same,average toxicity score,"[3]; […] (so in the source), Day 5",4.0
same,average toxicity score,"[3]; […] (so in the source), Day 9",4.8
same,average toxicity score,"[3]; […] (so in the source), Day 14",5.0
same,average toxicity score,[4],4.4
same,phytotoxic control (in words),[5],strong to excellent phytotoxic control
same,average toxicity score,"mature field weeds; 2.0M, Day 3",3.6
same,average toxicity score,"mature field weeds; 2.0M, Day 10",3.6
same,average toxicity score,"mature field weeds; 2.5M, Day 3",2.8
same,average toxicity score,"mature field weeds; 2.5M, Day 10",2.8
same,phytotoxicity (in words),mature field weeds; 2.5 molarity,less phytotoxicity than lower molarities
same,phytotoxic results (in words),"[6]; 1.0M, Days 3-7",strong phytotoxic results
same,average toxicity score,"[6]; 2.0M, Day 5",4.3
same,average toxicity score,"[6]; 2.0M, Day 7",4.4
same,average toxicity score,"[6]; […], Day 5",4.1
same,average toxicity score,"[6]; […], Day 7",4.1
same,phytotoxic effect (in words),[7]; pH 4.3,severe-to-fatal
same,phytotoxic effect (in words),[7]; pH 5.0,severe-to-fatal
same,average toxicity score,"[8]; 1.0M, Day 7 (so in the source)",4.3
same,average toxicity score,"[8]; 1.0M, Day 11",4.0
same,average toxicity score,"[8]; 2.0M, Day 1",4.0
same,average toxicity score,"[8]; 2.0M, Day 11",4.7
same,average toxicity score,"[8]; […], Day 1",4
same,average toxicity score,"[8]; […], Day 11",4.8
